Reference: patent US9360471B2, “Anti-aging agents and methods to identify them” (priority 2009, dated 2016)

Legend:
[1] = tested on: senescent WI-38 cells (human primary fibroblast); test: loss of senescent WI-38 cells, β-galactosidase (X-gal) staining; format: cell-based; settings: 56 days in senescence; 50 pM rapamycin, 250 μM AICAR, 20 μg/mL EGCG, 1.6 μg/mL GSE, 20 μg/mL bilberry extract, 1 μM AITC, 12.5 μM 2-deoxyglucose; 3-day-on/7-day-off (AICAR 2-day-on/8-day-off)
Description: AICAR and reduced glucose treatment were incubated with cells in a 2-day-on/8-day-off cycle, while the rest of agents were in a 3-day-on/7-day-off cycle. The treatment started at passage 29. The medium was refreshed every 3 days. After 56-days from passage 31 (senescence), the cells were briefly fixed in 2% formaldehyde/0.2% glutaraldehyde and stained with 1 mg/mL 5-bromo-4-chloro-3-indolyl β-D-galactoside (X-gal) (in buffer containing 40 mM citric acid/sodium phosphate, pH 6.0, 5 mM potassium ferrocyanide, 5 mM potassium ferricyanide, 150 mM NaCl, and 2 mM MgCl2) at 37° C. for 18 hrs for the senescence marker, cellular β-galactosidase activity (blue in color picture and dark grey in black/white picture). Surviving senescent cells were viewed under a microscope.
This invention discloses that CR or rapamycin also prolongs senescence and prevents cell death induced by telomere dysfunction in human cells. Primary human embryonic lung fibroblasts WI-38 were used. […] Cells at passage 29 were treated with 50 pM rapamycin. The treatment was on a 10-day cycle of 3-day with and 7-day without rapamycin (also termed as 3-day-on/7-day-off cycle). […] Due to increased cytosol β-galactosidase activity, senescent cells are stained a blue color (shown as dark grey in black/white picture). […] Rapamycin didn't transform cells since the senescence marker was still present and cell growth was not observed.

[2] = tested on: human lymphoblastoid L40; test: mitochondrial mass in human lymphoblastoid L40, MitoTracker Green FM and FACS; format: cell-based; settings: 2-day treatment; 10 μM LY294002, 2 μM DATS, 1 μM BITC, 1 μM PITC, 2 μg/mL resveratrol, 0.03 μM lycopene, 6.7 μM PEITC, 5 mM silibinin, 1.25 mM selenite, 2.5 mM genistein, 250 μg/mL GSE, 50 μg/mL EGCG, 3 mg/mL bilberry extract, 1 μM AITC, 50 pM rapamycin, 250 μM AICAR
From the text: Mitochondrial mass was monitored by staining the 60% Ethanol-fixed cells with MitoTracker Green FM prior to FACS analysis.

[3] = tested on: NIH3T3 cells; test: mitochondrial mass in NIH3T3 cells treated with TPA; format: cell-based, mouse; settings: 10 μM TPA+40 μM AICAR, two days
Description: NIH3T3 cells were incubated in DMEM medium (DMEM with 10% FCS, 100 units/mL penicillin, 100 μg/mL streptomycin and 2 mM glutamine) in the presence of control DMSO, 10 μM TPA, 1 nM rapamycin, 10 μM TPA+1 nM rapamycin, 40 μM AICAR, or 10 μM TPA+40 μM AICAR at 37° C. in a humidified atmosphere consisting of 95% air and 5% CO2 for two days. Cells were then harvested by trypsin and fixed by 60% ethanol. The cells were stained with MitoTracker Greeen FM in darkness for 30 min prior to FACS analysis. The data represents the average of a triplica-experiment.

[4] = tested on: NIH3T3 cells; test: TPA-induced transformation of NIH3T3 cells, colony formation in soft agar; format: cell-based, mouse; settings: 10 μM TPA + AICAR (40 μM)
Description: (A) TPA (10 μM) was incubated with NIH3T3 cells in 0.39% soft agar in the presence of DMSO, 1 nM rapamycin, or 250 nM AICAR, and cultured for 7 days prior to counting colonies under a microscope. (B) The data represents the average of four experiments.
The experiment was done as in Example 19. In brief, 1500 NIH3T3 cells were mixed with 50 μL, of 0.4% agarose in culture medium (basal medium with 10% bovine fetal serum), layered on 96-well plates pre-covered with 50 μL of 0.8% agarose in culture medium. 100 μL of culture medium containing drugs to make final DMSO, 10 μM TPA, 40 μM AICAR, or 10 μM TPA+[…] was then added into the wells. The cells were incubated in a 37° C. incubator with 5% CO2 for more than 7 days. 50 μL of fresh medium was added every 5 days. Colonies were then counted under a microscope.
Transformation of NIH 3T3 cells is a good in vitro tumorigenesis assay, which measures colony formation in soft agar (termed as anchorage-independent growth). The […] TPA (12-O-Tetradecanoylphorbol 13-acetate) is known to stimulate protein kinase C (PKC), activate oncogenes and transform mouse embryonic fibroblast NIH3T3 cells. The TPA-induced anchorage-independent growth of NIH3T3 cell was employed as a tumorigenesis assay. […] Colonies were then counted under a microscope. […]

[5] = tested on: WI-38 cells; test: MPP+ induced ROS in WI-38 cells, dehydrorhodamine 123 and FACS; format: cell-based, human; settings: 200 μM MPP^+, 3 days
Description: MPP+ with various concentrations of rapamycin was incubated with WI-38 cells for 3 days. Cells were stained with dehydrorhodamine 123 in the dark for 30 min prior to FACS analysis.
MPP^+, an inhibitor of complex I (NADH CoQ1 reductase) in the mitochondrial respiratory chain, is a dopaminergic neurotoxin. It is commonly used to induce Parkinson's disease in […]. Human primary fibroblast WI-38 cells were treated with 200 μM MPP^+ for 3 days. Cells were then stained with dehydrorhodamine 123 in the dark for 30 min. Cells were then analyzed by FACS.

Row | Compound | loss of the senescent WI-38 cells [1] | mitochondrial mass [2] | mitochondrial mass decrease induced by TPA [3] | anchorage-independent growth of NIH3T3 cells induced by TPA [4] | ROS level in WI-38 cells [5]
1 | NC(=O)c1ncn([C@@H]2O[C@H](CO)[C@@H](O)[C@H]2O)c1N [AICAR, 5-aminoimidazole-4-carboxamide-1-beta-D-ribofuranoside, reference compound] | prevented | increased | reverses the decrease in mitochondrial mass | inhibits the anchorage-independent growth | 
2 | C[n+]1ccc(-c2ccccc2)cc1 [MPP^+] |  |  |  |  | greatly increased ROS level
